Data set [1] has as its target human adenosine A2A receptors (Homo sapiens, UniProt P29274). The data set is described as follows: Binding affinities at hA2A receptors, displacement of [3H]-CGS 21680. Conditions: displacement of radioligand [3H]-CGS 21680, in vitro. A general note: Displacement assays read how much labelled ligand stays bound in the presence of the test substance.
For a further data set, the system named is adenosine A2A receptor. Conditions: cited from earlier work.
The conditions of data set [2]: cited from earlier work.

Chain of human adenosine A2A receptors (P29274 whole entry): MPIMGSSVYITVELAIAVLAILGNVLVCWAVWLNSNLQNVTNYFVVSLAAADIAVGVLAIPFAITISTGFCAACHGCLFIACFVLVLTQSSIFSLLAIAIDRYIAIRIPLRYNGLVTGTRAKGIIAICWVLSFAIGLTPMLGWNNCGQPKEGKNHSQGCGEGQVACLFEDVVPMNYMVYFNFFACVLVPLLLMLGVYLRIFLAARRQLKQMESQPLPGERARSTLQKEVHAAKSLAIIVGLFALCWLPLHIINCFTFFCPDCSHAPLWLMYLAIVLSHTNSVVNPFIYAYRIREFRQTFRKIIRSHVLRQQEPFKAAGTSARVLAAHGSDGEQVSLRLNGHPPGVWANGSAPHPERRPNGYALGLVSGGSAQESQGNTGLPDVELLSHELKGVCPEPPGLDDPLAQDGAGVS

Usually Ki stands for the equilibrium dissociation constant of an inhibitor or competing ligand from its target. A word on the melting point: it is the temperature of the solid-liquid transition. Turning to `CN(C)c1nc(-c2ccco2)c2cc[nH]c2n1` [Example 1, N,N-dimethyl-4-(2-furyl)-1H-pyrrolo[2,3-d]pyrimidine-2-amine], the melting point is 196.9 to 197.1 °C. In data set [1], this molecule returned a Ki of 60 nM.

`Nc1nc(-c2ccco2)c2cc[nH]c2n1` [Example 8, 4-(2-furyl)-1H-pyrrolo[2,3-d]pyrimidine-2-amine] returned a Ki in data set [1] of 272 nM. That is a sub-micromolar value.

As to `CCCn1c(=O)c2c(nc(/C=C/c3ccc(OC)c(OC)c3)n2C)n(CCC)c1=O` [KF 17837, (E)-8-(3,4-dimethoxystyryl)-1,3-dipropyl-7-methylxanthine], the “anticataleptic effects of a subthreshold dose of L-DOPA plus benserazide” value in the data set on adenosine A2A receptor (combination with L-DOPA plus benserazide) was “potentiated”. For the same molecule, in the data set on adenosine A2A receptor (in vivo), the “catalepsy induced by haloperidol and reserpine” value was “reduced”. The “cataleptic responses induced by intracerebroventricular CGS 21680” value in the data set on adenosine A2A receptor (oral administration) is recorded as “significantly ameliorated”.

In turn, `CN(C)c1nc(-c2ccco2)c2ccn(C(=O)c3ccccc3)c2n1` [Example 5, 7-benzoyl-N,N-dimethyl-4-(2-furyl)-7H-pyrrolo[2,3-d]pyrimidine-2-amine] gave a melting point of 108.3 to 109.1 °C.

Molecule `CN(C)c1nc(-c2ccco2)c2ccn(Cc3ccccc3F)c2n1` [Example 11, N,N-dimethyl-7-(2-fluorobenzyl)-4-(2-furyl)-7H-pyrrolo[2,3-d]pyrimidine-2-amine] registered a melting point of 115.1 to 115.2 °C.

Regarding `Cn1c(=O)c2[nH]cnc2n(C)c1=O` [Theophylline, 1,3-dimethylxanthine], the “mean objective disability scores” value in data set [2] (150 mg/day oral, up to 12 weeks, 15 Parkinsonian patients) is given as “significant improvements”. For the same molecule, the “patients reporting moderate or marked subjective improvement” value in data set [2] (of 15 Parkinsonian patients, 150 mg/day oral, up to 12 weeks) is listed as 11. For the same molecule, the serum theophylline levels in data set [2] (slow release oral preparation 150 mg/day, after one week, 15 Parkinsonian patients) is given as 4.44 mg/L.

`COc1ccc(CNc2nc(-c3ccco3)c3cc[nH]c3n2)cc1OC` [Example 7, N-(3,4-dimethoxybenzyl)-4-(2-furyl)-1H-pyrrolo[2,3-d]pyrimidine-2-amine]: the melting point lay in the range of 154.8 to 154.9 °C.

The molecule `Nc1nc(-c2ccco2)c2ccn(Cc3ccccc3F)c2n1` [Example 13, 7-(2-fluorobenzyl)-4-(2-furyl)-7H-pyrrolo[2,3-d]pyrimidine-2-amine] returned a Ki in data set [1] of 16 nM.

`Clc1nc(-c2ccco2)c2cc[nH]c2n1` [Example 2, 2-chloro-4-(2-furyl)-1H-pyrrolo[2,3-d]pyrimidine] came in with a melting point of 265.8 to 266.3 °C.

`CN(C)c1nc(-c2ccco2)c2ccn(Cc3ccccc3)c2n1` [Example 3, 7-benzyl-N,N-dimethyl-4-(2-furyl)-7H-pyrrolo[2,3-d]pyrimidine-2-amine] showed a melting point of 91.7 to 92.3 °C.

Take `OC[C@H]1CCCN1c1nc(-c2ccco2)c2cc[nH]c2n1` [Example 6, (2R)-2-(2-hydroxymethylpyrrolidin-1-yl)-4-(2-furyl)-1H-pyrrolo[2,3-d]pyrimidine]: the melting point lay within 174.8 to 175.6 °C.
